Assay [1] deals with IFN-γ. In words: IFN-γ production by PHA-stimulated human PBMC (OptEIA human IFN-g ELISA). The class given is cell-based. The conditions noted are these: PHA-stimulated human PBMC, 48 hours; column C; read-out: IC50 (IFNγ). Here is the method: Analysis of Proliferation of and Cytokine Production by Human PBMC Stimulated with PHA
Peripheral blood mononuclear cells (PBMC) from healthy human donors were purified using Accuspin™ System-Histopaque-1077 (Sigma) according to the protocol recommended by the manufacturer. Purified PBMC were then washed twice with phosphate-buffered saline (PBS) and resuspended in RPMI1640 culture medium supplemented with 10% dialyzed heat inactivated fetal calf serum, 1.5 mM L-glutamine, 100 U penicillin/ml, and […] (all from PAN Biotech, Aidenbach, Germany). For stimulation, PBMC were seeded at 1×10^5 cells/well, activated with 2 μg/ml phytohaemagglutinin (PHA, Sigma) and incubated with the test compounds for 48 hours. IL-17A, IL-17F and INF-γ were then determined in the culture supernatant using a Luminex BioPlex system, following the manufacturer's instructions (BioRad, Munich, Germany). For screening, compounds were used at 10, 1, 0.1 and 0.01 μM. To determine the IC50, compounds were titrated semilogarithmically.
Cytokines were determined in the aforementioned culture supernatant using the following methods: IL-17AA/AF was measured using the Luminex BioPlex system (BioRad, Munich, Germany); IL-17AA using the human homodimer IL-17A ELISA Ready Set Go Kit from eBioscience (Frankfurt, Germany); IL-17FF using the human IL-17F ELI-Pair from Hölzel DiagnosticaGmBH (Köln, Germany); and IFN-γ using the OptEIA human IFN-g ELISA from BD Bioscience (Heidelberg, Germany), all following the manufacturer's instructions.
For orientation: ELISA stands for enzyme-linked immunosorbent assay.

The subject of assay [2] is PBMC from healthy human donors. Kind of assay: T cell proliferation assay (PHA-stimulated human PBMC, BrdU ELISA). The conditions noted are these: PHA-stimulated human PBMC, 48 hours, column D, read-out: IC50 (Tcell proliferation). The assay is classed as cell-based. Here is the method:
Cell proliferation was analysed using the BrdU based cell proliferation ELISA from Roche (Mannheim, Germany) according to the manufacturer's instructions. T Cell Proliferation Assay Peripheral blood mononuclear cells (PBMC) from healthy human donors were isolated by centrifugation over Ficoll-Hypaque (Sigma-Aldrich, Germany) according to manufacturer's instructions. Purified PBMC were washed twice with PBS and resuspended in RPMI1640 culture medium supplemented with 10% dialyzed heat inactivated fetal calf serum, 1.5 mM L-glutamine, 100 U penicillin/ml, and […] (all from PAN Biotech, Aidenbach, Germany). For stimulation, PBMC were seeded at 1×10^5 cells/well, activated with 2 μg/ml phytohaemagglutinin (PHA, Sigma) and incubated with the test compound. After 48 hours proliferation was measured using the BrdU based cell proliferation ELISA from Roche (Mannheim, Germany) according to the manual.
Background: Uptake of a labelled nucleoside into DNA is a usual measure of proliferation.

Molecules are shown by their SMILES.

Turning to `CC(C)OC(=O)c1c(-c2c(F)cccc2Cl)noc1-c1cnn(-c2cccc(S(N)(=O)=O)c2)c1C(F)(F)F` [IB-73, isopropyl 3-(2-chloro-6-fluorophenyl)-5-(1-(3-sulfamoylphenyl)-5-(trifluoromethyl)-1H-pyrazol-4-yl)isoxazole-4-carboxylate], the IC50 in assay [1] and in assay [2] was 1 to 10 µM in each case.

On to `CN1CCN(C(=O)c2c(-c3c(F)cccc3Cl)noc2-c2cnn(-c3cccc(Cl)c3)c2C(F)(F)F)CC1` [IB-34, (3-(2-chloro-6-fluorophenyl)-5-(1-(3-chlorophenyl)-5-(trifluoromethyl)-1H-pyrazol-4-yl)-isoxazol-4-yl)(4-methylpiperazin-1-yl)methanone], for which the IC50 in assay [1] and in assay [2] was 0.1 to 1 µM throughout.

Turning to `O=C(c1c(-c2c(F)cccc2Cl)noc1-c1cnn(-c2ccccc2F)c1C(F)(F)F)N1CCCCC1` [Example I-21, (3-(2-chloro-6-fluorophenyl)-5-(1-(2-fluorophenyl)-5-(trifluoromethyl)-1H-pyrazol-4-yl)isoxazol-4-yl)(piperidin-1-yl)methanone], the IC50 in assay [1] and in assay [2] was 0.01 to 0.1 µM throughout.

As for `COC(=O)c1c(-c2ccccc2)noc1-c1cnn(-c2cccc(F)c2)c1C(F)(F)F` [Example I-51, methyl 5-(1-(3-fluorophenyl)-5-(trifluoromethyl)-1H-pyrazol-4-yl)-3-phenylisoxazole-4-carboxylate], the IC50 in assay [1] and in assay [2] was 1 to 10 µM in each case.

For `CC(C)=NNC(=O)c1c(-c2c(F)cccc2Cl)noc1-c1cnn(-c2cccc(F)c2)c1` [IB-29, 3-(2-chloro-6-fluorophenyl)-5-(1-(3-fluorophenyl)-1H-pyrazol-4-yl)-N′-(propan-2-ylidene)isoxazole-4-carbohydrazide], the IC50 in assay [1] and in assay [2] was 1 to 10 µM throughout.

For `CC(=O)Nc1c(-c2c(F)cccc2Cl)noc1-c1cnn(-c2cccc(Cl)c2)c1C(F)(F)F` [IB-39, N-(3-(2-chloro-6-fluorophenyl)-5-(1-(3-chlorophenyl)-5-(trifluoromethyl)-1H-pyrazol-4-yl)-isoxazol-4-yl)acetamide], the IC50 in assay [1] and in assay [2] was 1 to 10 µM each time.

`COC(=O)c1c(-c2ccc(Cl)c(Cl)c2)noc1-c1cnn(-c2cccc(F)c2)c1C(F)(F)F` [Example I-97, methyl 3-(3,4-dichlorophenyl)-5-(1-(3-fluorophenyl)-5-(trifluoromethyl)-1H-pyrazol-4-yl)isoxazole-4-carboxylate]: the IC50 in assay [2] was in the range of 1 to 10 µM.

As for `COC(=O)c1c(-c2c(F)cccc2Cl)noc1-c1cnn(-c2ccc(OC(F)(F)F)cc2)c1C(F)(F)F` [Example I-33, methyl 3-(2-chloro-6-fluorophenyl)-5-(1-(4-(trifluoromethoxy)phenyl)-5-(trifluoromethyl)-1H-pyrazol-4-yl)isoxazole-4-carboxylate], in assay [2], the IC50 is 1 to 10 µM.

Take `O=C(c1c(-c2c(F)cccc2Cl)noc1-c1cnn(-c2ccccc2F)c1C(F)(F)F)N1CCN(Cc2cccc(Cl)c2)CC1` [Example I-24, (3-(2-chloro-6-fluorophenyl)-5-(1-(2-fluorophenyl)-5-(trifluoromethyl)-1H-pyrazol-4-yl)isoxazol-4-yl)(4-(3-chlorobenzyl)piperazin-1-yl)methanone]: the figures for the IC50 in assay [1] and in assay [2] were 1 to 10 µM and 0.1 to 1 µM, respectively.

Consider `CON(C)C(=O)c1c(-c2c(F)cccc2Cl)noc1-c1cnn(-c2ccccc2Br)c1C(F)(F)F` [IB-74, 5-(1-(-2-bromophenyl)-5-(trifluoromethyl)-1H-pyrazol-4-yl)-3-(2-chloro-6-fluorophenyl)-N-methoxy-N-methylisoxazole-4-carboxamide], for which the IC50 in assay [1] and in assay [2] was 1 to 10 µM throughout.

With `COC(=O)c1c(-c2c(F)cccc2Cl)noc1-c1cnn(-c2ccccc2I)c1C(F)(F)F` [Example I-88, methyl 3-(2-chloro-6-fluorophenyl)-5-(1-(2-iodophenyl)-5-(trifluoromethyl)-1H-pyrazol-4-yl)isoxazole-4-carboxylate], in assay [2], the IC50 is 1 to 10 µM.

For `O=C(O)c1c(-c2c(F)cccc2Cl)noc1-c1cnn(Cc2ccccc2F)c1C(F)(F)F` [IB-86, 3-(2-chloro-6-fluorophenyl)-5-(1-(2-fluorobenzyl)-5-(trifluoromethyl)-1H-pyrazol-4-yl)isoxazole-4-carboxylic acid], the IC50 in assay [2] was in the range of 1 to 10 µM.

With `CCOC(=O)c1c(-c2onc(-c3c(F)cccc3Cl)c2C(=O)OC)cnn1-c1ccccc1` [Example I-34, methyl 3-(2-chloro-6-fluorophenyl)-5-(5-(ethoxycarbonyl)-1-phenyl-1Hpyrazol-4-yl)isoxazole-4-carboxylate], in assay [2], the IC50 was in the range of 1 to 10 µM.

As for `COC(=O)c1c(-c2ccc(OC)cc2)noc1-c1cnn(-c2cccc(F)c2)c1C(F)(F)F` [Example I-107, methyl 5-(1-(3-fluorophenyl)-5-(trifluoromethyl)-1H-pyrazol-4-yl)-3-(4-methoxyphenyl)isoxazole-4-carboxylate], the IC50 in assay [2] is 1 to 10 µM.

On to `CCOC(=O)c1c(-c2onc(-c3c(F)cccc3Cl)c2C(=O)OC)cnn1CC(C)C` [Example I-29], for which, in assay [2], the IC50 lay within 1 to 10 µM.

`O=C(O)c1c(-c2ccccc2F)noc1-c1cnn(-c2cccc(F)c2)c1C(F)(F)F` [Example I-91, 3-(2-fluorophenyl)-5-(1-(3-fluorophenyl)-5-(trifluoromethyl)-1H-pyrazol-4-yl)isoxazole-4-carboxylic acid]: in assay [2], the IC50 lay in the range of 1 to 10 µM.

Take `NNC(=O)c1c(-c2cccc(F)c2)noc1-c1cnn(-c2cccc(F)c2)c1C(F)(F)F` [Example I-134, 3-(3-fluorophenyl)-5-(1-(3-fluorophenyl)-5-(trifluoromethyl)-1H-pyrazol-4-yl)isoxazole-4-carbohydrazide]: the IC50 in assay [2] was in the range of 1 to 10 µM.

For `COC(=O)c1c(-c2c(F)cccc2Cl)noc1-c1cnn(-c2onc(-c3ccc(Cl)cc3)c2C(=O)OC)c1C(F)(F)F` [Example I-131, methyl 3-(2-chloro-6-fluorophenyl)-5-{[1-(4-methoxycarbonyl-3-(4-chlorophenyl)isoxazol-5-yl)-5-trifluoromethyl-1H-pyrazol-4-yl]}-isoxazole-4-carboxylate], in assay [2], the IC50 was 1 to 10 µM.

For `COC(=O)c1c(-c2c(F)cccc2Cl)noc1-c1cnn(-c2nc(-c3ccc(F)cc3)cs2)c1C(F)(F)F` [Example I-54, methyl 3-(2-chloro-6-fluorophenyl)-5-(1-(4-(4-fluorophenyl)thiazol-2-yl)-5-(trifluoromethyl)-1H-pyrazol-4-yl)isoxazole-4-carboxylate], the IC50 in assay [2] fell in the range of 1 to 10 µM.

`CCOC(=O)c1c(-c2onc(-c3c(F)cccc3Cl)c2C(=O)OC)cnn1-c1cc(F)cc(F)c1` [Example I-39, methyl 3-(2-chloro-6-fluorophenyl)-5-(1-(3,5-difluorophenyl)-5-(ethoxycarbonyl)-1-H-pyrazol-4-yl)isoxazole-4-carboxylate]: the IC50 in assay [2] was 1 to 10 µM.

With `COC(=O)c1c(-c2ccc(Cl)cc2)noc1-c1cnn(-c2cccc(F)c2)c1C(F)(F)F` [Example I-73, methyl 3-(4-chlorophenyl)-5-(1-(3-fluorophenyl)-5-(trifluoromethyl)-1H-pyrazol-4-yl)isoxazole-4-carboxylate], the IC50 in assay [2] was 1 to 10 µM.

In the case of `COC(=O)c1c(-c2c(F)cccc2Cl)noc1-c1cnn(-c2nccc(C(F)(F)F)n2)c1C(F)(F)F` [Example I-67, methyl 3-(2-chloro-6-fluorophenyl)-5-(5-(trifluoromethyl)-1-(4-(trifluoromethyl)pyrimidin-2-yl)-1H-pyrazol-4-yl)isoxazole-4-carboxylate], the IC50 in assay [2] was 0.1 to 1 µM.

As to `CNC(=S)c1c(-c2c(F)cccc2Cl)noc1-c1cnn(-c2cccc(Cl)c2)c1C(F)(F)F` [Example I-72, 3-(2-chloro-6-fluorophenyl)-5-(1-(3-chlorophenyl)-5-(trifluoromethyl)-1H-pyrazol-4-yl)-N-methylisoxazole-4-carbothioamide], the IC50 in assay [1] and in assay [2] was 0.1 to 1 µM throughout.

Consider `Fc1ccccc1-n1ncc(-c2onc(-c3c(F)cccc3Cl)c2Br)c1C(F)(F)F` [IB-26, 4-bromo-3-(2-chloro-6-fluorophenyl)-5-(1-(2-fluorophenyl)-5-(trifluoromethyl)-1H-pyrazol-4-yl)isoxazole], for which the IC50 fell in the range of 0.1 to 1 µM in assay [1] and 1 to 10 µM in assay [2].
